Data as given in patent publication US8323971B2, “Differentiation of pluripotent cells into primary germ layer progenitors” (Cambridge Enterprise Limited, priority 2006, dated 2012).

Columns and labels:
Format in all cases: cell-based, human
[1] = tested on: H9 hESCs; experiment: Screening of culture conditions by immunostaining for Oct4, Sox2, Brachyury, Sox17; settings: for rescue of Oct4 expression under SB431542: added with SB431542
Experimental: Table 2 and Table 3 show the screening of culture conditions for inducing mesoendoderm differentiation into CDM. H9 hESCs were grown for 7 days or more in CDM-BSA or CDM-PVA supplemented with different growth factors (Activin, BMP4, FGF2) or inhibitors (SU5402 for FGF, SB431542 for Activin/Nodal/TGFβ, BIO for βCatenin). Then, immunostaining analysis were used to determine the fractions of cells expressing the pluripotent marker Oct-4, neuroectoderm marker Sox2, the mesoderm marker Brachyury, and the endoderm marker Sox17. The quantities of expressing cells were divided into five arbitrary categories. 0 for absence of expression, VL for expressing cells <1%, L for expressing cells <5%, H for expressing cells >10%, VH for expressing cells >50%. IN red are indicated the conditions allowing the generation of mesendoderm cells expressing Brachyury or Sox17.
HESCs or differentiated progenitors were fixed for 20 minutes at 4° C. in 4% paraformaldehyde (PFA) and then washed three times in PBS. Cells were incubated for 20 minutes at room temperature in PBS containing 10% goat serum (Serotec) and subsequently incubated over night at 4° C. with primary antibody diluted in 1% goat serum in PBS as follows: SSEA-3 (1:100, Santa Cruz), SSAE-1 (1:25), Tra-1-60 (1:100, Santa CruZ), Oct-4 (1:100, Abcam ab18976 or SantaCruz), Sox2 (1:100, Abcam ab15830), Alkaline Phophatase (1:50, Abcam ab17989), Brachyury (1:100, Abcam ab20680 or RandD systems), Sox17 (RandD systems), FoxA2 (1:50, Abcam ab5074), GATA4 (1:250, Santa CruZ), GATA6 (1:200, Abcam ab22600 or Santa Cruz), Vent-2 (1:100, Abcam ab20913), Goosecoid (1:25, Abcam ab21059), Wnt3A (1:100, Abcam ab19925), CXCR4 (1:100, RanD Systems or Pharmingen). Nestin (1:200, Abcam ab5968), NCAM (1:100, Abcam ab8077), GFAP (ZZ), Neurofilament (ZZ), βIII Tubulin (ZZ), Glutamate (ZZ), N-Cadherin (1:100, Abcam ab18203 or ZZ). Cells were then washed three times in PBS and incubated with fluorescein-Isothiocyanate-conjugated anti-mouse IgG or IgM (Sigma 1:200 in 1% goat serum in PBS) or rat IgM (Jackson laboratory 1:300 in goat serum in PBS) or rabbit IgG (Jackson laboratory 1:200 in donkey serum in PBS) for two hours at room temperature. Unbound secondary antibody was removed by 3 washes in PBS. Hoechst 33258 was added to the first wash (Sigma 1:10000).
We then developed a method for inducing differentiation of hESCs into the three primary germ layers. Culture conditions inductive for mesoderm, endoderm and neuroectoderm were screened using an approach based on immunostaining analyses for the expression of proteins specifically expressed by pluripotent cells (Oct-4), neuroectoderm progenitors (Sox2 in absence of Oct4), endoderm progenitors (Sox17) and mesoderm progenitors (Brachyury). In summary, hESCs grown in CDM (CDM-BSA or hu-CDM) were plated on fibronectin in CDM-BSA/AF or CDM-PVA/AF. Then cocktails of growth factors (BMP4, FGF2, Activin) or chemical inhibitors (SU5402, SB431542) were added at different times and for different periods. After 7 to 10 days treatment, cells were fixed and then the expression of Oct-4/Sox2, Sox17 and Brachyury was analysed using immunostaining. The effect of three growth factors on the differentiation of hESCs into the primary germ layers was systematically analysed in our screen. We also studied the function of FGF and Activin signalling pathways in the maintenance of the pluripotent state by analysing the effect of the SU5402, a chemical inhibitor of FGF receptors, and the SB431542, a chemical inhibitor of Activin/TGFβ receptors.

[2] = tested on: hESC derived EBs; experiment: Real time qPCR / RT-PCR of neuroectoderm and pluripotency markers in EBs
Experimental: Four independent batches of WT and Lefty EBs were used for this analysis.
Five independent batches of DMSO- and SB431542-treated EBs were used for this analysis.
Lefty or Cerb-S expressing hESCs (as well as wildtype H9 and hSF-6 hESCs) were grown in 6 cm dishes (Corning), on mouse feeders. When confluent, hESCs were passaged using collagenase 1 mg/ml, as previously described (Schatten et al., 2005) and cultured in non-adherent conditions in CDM supplemented with either SU5402 (Calbiochem; 10 μM), SB431542 (Tocris; 20 μM), FGF-2 (R&D Systems; 12 ng/ml) or Noggin 200 ng/ml.
For some RT-PCR experiments, 50-100 ng of RNA were used for each RT-PCR reaction, using the OneStep RT-PCR kit according to manufacturer instructions. For real-time PCR, 1 μg RNA was reverse-transcribed using the Qiagen QuantiTect Reverse Transcription kit. 1/20-1/40 of each cDNA reaction was used for each real-time PCR reaction using the QuantiTect SYBR Green PCR Kit (Qiagen) according to manufacturer instructions. Relative quantification of gene expression was done by normalising the detected levels of gene of interest mRNA to those of the house-keeping GAPDH gene. All primers were purchased from Qiagen, with the exception of Xenopus Cerb-S: Forward 5′-[…]-3′ (SEQ ID NO: 1); Reverse 5′-ATGGTGCAGGGTAG TAGATG-3′ (SEQ ID NO: 2). Mouse Lefty2: Forward 5^r-[…]-3′ (SEQ ID NO: 3); Reverse 5′-[…]-3′ (SEQ ID NO: 4).

[3] = tested on: hESCs; experiment: Quantitation of β-tubulin III positive cells in monolayer differentiation; settings: Lefty expressing hESCs, feeder free monolayer, CDM; FGF 12 ng/ml, Noggin 200 ng/ml, SU5402 20 μM
Experimental: In some experiments, Wildtype and Lefty expressing hESCs were grown on fibronectin in FGF (12 ng/ml)/Activin (20 ng/ml) as a monolayer in the absence of a feeder layer (Vallier et al., 2005). When cells were 70-80% confluent medium was changed to either CDM only, CDM/FGF (12 ng/ml), CDM/Noggin 200 ng/ml, CDM/SU5402 and differentiated for 24 days.
To quantify the neurogenic potential of Lefty expressing hESCs, we cultured Lefty expressing hESCs in feeder-free conditions as a monolayer in CDM supplemented with Activin and FGF as described previously (Vallier et al., 2005). When cells reached 70-80% confluency, medium was changed to CDM only, CDM plus FGF (12 ng/ml) (CDM/FGF), CDM plus the BMP inhibitor Noggin (200 ng/ml) ([…]) (CDM/SU5402), and cells were cultured in these conditions for 24 days
The incidence of neural differentiation was determined by counting the number of β-tubulin III positive cells in random fields.

[4] = tested on: hESCs; experiment: FACs fraction of cells expressing CXCR4 or PDGFR after mesendoderm induction in CDM PVA; settings: Activin 100 ng/ml at third step with BMP4 and FGF2, CDM-PVA
Experimental: Fraction of cells expressing CXCR4 or PDGFa was determined using FACs after the third day in CDM+BMP+FGF+Activin.
hESCs grown in Feeder free and serum free conditions were harvested using 5 mg/ml collagenase IV then plated into plates pre-coated with fibronectin. hESCs were grown for 48 hours in CDM supplemented with Activin (10 ng/ml, RandD systems) and FGF2 (12 ng/ml, RandD systems). To induce extra-embryonic differentiation, hESCs were grown for 5 additional days in CDM supplemented with BMP4 (10 ng/ml, RandD systems). To obtain neuroectoderm progenitors, hESCs were grown in CDM or in CDM-PVA in the presence of SB431542 (10 μM Tocris) and FGF2 (12 ng/ml, RandD systems) for 7 additional days. The resulting cells were grown in non-adherent conditions for 10 days and then plated back for 5 additional days in CDM to obtain fully differentiated neuronal cells. To obtain mesendoderm precursors, hESCs were grown for 3 additional days in CDM-PVA in the presence of SU5402 (10 μM, Calbiochem) and Activin (5 ng/ml, RandD systems). […]
For detection of Tra-1-60, SSEA-3, N-CAM, CXCR4 and PDGFαRecptor adherent cells were washed twice in PBS then incubated for 20 minutes at 37 C in cell dissociation buffer (Invitrogen). […] Live cells identified by 7-AAD exclusion were analyzed for surface-marker expression using FACSCalibur.

O=C1Nc2cc(Br)ccc2/C1=C1/Nc2ccccc2/C1=N\O [BIO, reference compound]
rescue of Oct4 expression under SB431542 [1]: not sufficient to rescue the expression of Oct4

NC(=O)c1ccc(-c2nc(-c3ccc4c(c3)OCO4)c(-c3ccccn3)[nH]2)cc1 [SB431542, 4-(5-Benzol[1,3]dioxol-5-yl-4-pyrldin-2-yl-1H-imidazol-2-yl)-benzamide hydrate]
cells expressing the mesendoderm markers Bra, Sox17, FoxA2, and αFP ([1]; in the presence of SB431542): never observed
Nestin, Sox3, and NGN2 expression (real time qPCR) ([2]; 20 μM, EBs cultured 14-16 days, vs DMSO): average increase
pluripotency marker Oct4 (RT-PCR time course) ([2]; EBs harvested every 4 days over 16 days, compared to controls): rapid down-regulation
Sox1 expression levels (real time qPCR) ([2]; EBs in CDM 14-16 days, vs DMSO): not a significant increase

Cc1c[nH]c(C=C2C(=O)Nc3ccccc32)c1CCC(=O)O [SU5402, 3-[3-(2-Carboxyethyl)-4-methylpyrrol-2-methylidenyl]-2-indolinone, reference compound]
number of β-tubulin III positive cells compared to controls [3]: significant reduction

FGF2: human fibroblast growth factor 2
rescue of Oct4 expression under SB431542 [1]: not sufficient to rescue the expression of Oct4
number of β-tubulin III positive cells compared to controls [3]: did not show a significant increase

B1: Activin: dimeric polypeptide stimulating the Activin/Nodal pathway (protein, UniProt P08476 311-426, looked up)
Inhibin beta A chain: GLECDGKVNICCKKQFFVSFKDIGWNDWIIAPSGYHANYCEGECPSHIAGTSGSSLSFHSTVINHYRMRGHSPFANLKSCCVPTKLRPMSMLYYDDGQNIIKKDIQNMIVEECGCS
modifications: Inhibin beta A chain
fraction of cells expressing CXCR4 [4]: 70%
fraction of cells expressing PDGFR [4]: 7%
expression of neuroectoderm markers Sox1, Sox3, Nestin and NGN2 ([2]; addition to EB cultures): decreasing expression

B2: Noggin: the BMP inhibitor Noggin (protein, UniProt Q13253 28-232, looked up)
Noggin: QHYLHIRPAPSDNLPLVDLIEHPDPIFDPKEKDLNETLLRSLLGGHYDPGFMATSPPEDRPGGGGGAAGGAEDLAELDQLLRQRPSGAMPSEIKGLEFSEGLAQGKKQRLSKKLRRKLQMWLWSQTFCPVLYAWNDLGSRFWPRYVKVGSCFSKRSCSVPEGMVCKPSKSVHLTVLRWRCQRRGGQRCGWIPIQYPIISECKCSC
number of β-tubulin III positive cells compared to controls [3]: significant increase
